Earlier results, collected in patent US11278622B2, “Ceftolozane antibiotic compositions” (Merck Sharp & Dohme Corp., priority 2013, dated 2022).

Tested on: P. aeruginosa

MIC90: ≤ 2 µg/mL
SMILES: Cn1c(N)c(NC(=O)NCCN)c[n+]1CC1=C(C(=O)O)N2C(=O)[C@@H](NC(=O)/C(=N\OC(C)(C)C(=O)O)c3nsc(N)n3)[C@H]2SC1 [ceftolozane, (6R,7R)-3-[(5-amino-4-{[(2-aminoethyl)carbamoyl]amino}-1-methyl-1H-pyrazol-2-ium-2-yl)methyl]-7-({(2Z)-2-(5-amino-1,2,4-thiadiazol-3-yl)-2-[(1-carboxy-1-methylethoxy)imino]acetyl}amino)-8-oxo-5-thia-1-azabicyclo[4.2.0]oct-2-ene-2-carboxylate]
